{"source": "paper PMC3923439", "about": "“Anti-inflammatory properties of a novel peptide interleukin 1 receptor antagonist” (Journal of Neuroinflammation, 2014)", "key": {"[1]": {"tested_on": "Cerebellar granule neurons", "assay": "Neurite outgrowth from cerebellar granule neurons", "type": "cell-based, rat", "details": "7-day-old CGNs grown on fibroblast cells, 24 hours", "method": "Cerebellar granule neurons (CGNs) were prepared from 7-day-old Wistar rats (from Charles River Laboratories, Sulzfeld, Germany; or from Hygind Møllegård Erik Møllegaard Hansen, Ejby, Denmark) as previously described. Briefly, the cerebella were cleared of meninges and blood vessels, roughly homogenized by chopping and trypsinized. The cells were washed in the presence of DNAse I and soybean trypsin inhibitor (Sigma-Aldrich, St Louis, MO, USA), and cellular debris was pelleted by centrifugation. The fibroblastoid mouse cell line L929 (LVN; European Collection of Cell Cultures, Porton Down, UK) was routinely grown at 37°C with 5% CO2 in DMEM supplemented with 10% (vol/vol) FCS, 2 mM GlutaMAX, 100 U/ml penicillin and 100 μg/ml streptomycin.\nCerebellar granule neurons were plated at a density of 1 × 10^5 cells/cm^2 on poly-L-lysine-coated, eight-well Permanox Lab-Tek chamber slides (Nunc) in Neurobasal-A medium supplemented with 2% (vol/vol) B27 (Gibco BRL), 0.5% (vol/vol) GlutaMAX, 100 U/ml penicillin and 100 μg/ml streptomycin. The CGN survival assay was performed as previously described. The neurite outgrowth assay was also performed as previously described.\nFigure 6 Effect of Ilantide on neurite outgrowth from cerebellar granule neurons. Cerebellar granule neuron cultures were treated with interleukin 1 receptor antagonist (IL-1Ra) (A), soluble interleukin 1 receptor type I (sIL-1RI) (B), Ilantide-t (C) or IL-1β (D) for 24 hours. The cultures were fixed and immunostained with rabbit anti-rat growth-associated protein 43 (anti-GAP-43) primary antibodies and then with secondary Alexa Fluor 488 goat anti-rabbit antibodies. (E) Effect of IL-1β on neurite outgrowth induced by IL-1Ra. (F) Effect of IL-1β on neurite outgrowth induced by Ilantide-t. The results from three to four independent experiments are expressed as percentage ± SEM with untreated controls set at 100%, corresponding to an average neurite length of 19.3 ± 4.1 μm. *P < 0.05 and **P < 0.01 compared with untreated controls (A to D) or cultures treated with either IL-1Ra or Ilantide alone (E and F) by one-way analysis of variance followed by the Newman-Keuls post hoc test)."}, "[2]": {"tested_on": "neonatal rat pancreatic islets", "assay": "IL-1β-induced rat islet cell apoptosis (cell death detection ELISA)", "type": "cell-based", "method": "Neonatal rat islets were isolated from 3- to 6-day-old outbred Wistar rats (Taconic, Ejby, Denmark) as previously described. Islets were precultured and maintained in RPMI 1640 medium (Gibco/Life Technologies) supplemented with 20 mmol/L HEPES buffer, 0.038% (wt/vol) NaHCO3, 100 U/ml penicillin, 100 µg/ml streptomycin and 10% (vol/vol) newborn calf serum (NCS) at 37°C in humidified atmospheric air. Prior to experimentation, the islets were randomly distributed to 24-well dishes and incubated for 2 hours in RPMI 1640 medium supplemented as described above, but with 0.5% (vol/vol) NCS relevant reagents were added as indicated.\nFor cell death detection, rat islets were incubated with 150 pg/ml IL-1β (BD Pharmingen, San Diego, CA, USA) alone or in combination with various concentrations of Ana and Ilantide for 24 hours at 37°C in humidified atmospheric air. Rat islet cell death was assessed by cell death detection ELISA (Roche, Lund, Sweden) as previously described. As a surrogate measure of nitric oxide production, Griess reagent (1:1 aqueous mixture of 0.1% naphthylethylenediamine hydrochloride and 1% sulfanilamide + 5% H3PO4) was mixed in a 1:1 ratio with 100 μl of supernatant samples to determine the nitrite content in supernatants from the cell death assays described above.\nFigure 7 Effect of Ilantide on interleukin 1β-induced rat islet cell apoptosis. Rat pancreatic islets were preincubated for 30 minutes in the absence or presence of various concentrations of anakinra (A), Ilantide-m (B) or Ilantide-t (C) and then exposed to […] interleukin 1β (IL-1β) for 24 hours. Cytokine-induced apoptosis was determined by cell death detection enzyme-linked immunosorbent assay. Apoptosis rates are presented as fold induction compared with untreated control islets (white bars). The data from four independent experiments are presented as mean ± SEM. *P < 0.05 and **P < 0.01 compared with cultures treated with IL-1β alone (one-way analysis of variance followed by Dunnett’s post hoc test)."}, "[3]": {"tested_on": "collagen-induced arthritis", "assay": "Collagen-induced arthritis in rats", "type": "in vivo", "details": "rat, 10 mg/kg s.c. daily dpi 8 to 15, dpi 10 to 16, P < 0.05", "experimental": "CIA was induced by bovine collagen type II (CII; Sigma-Aldrich) solubilized in 0.05 M acetic acid (2 mg/ml), then emulsified 1:1 with complete Freund’s adjuvant (CFA) (Sigma-Aldrich) that contained 1.0 mg/ml heat-inactivated Mycobacterium tuberculosis. While the animals were under inhalation anesthesia (3% isoflurane; Baxter, Allerød, Denmark), 250 μl of the emulsion that contained 250 μg of CII and 125 μg of M. tuberculosis were injected intradermally at the tail base (day postimmunization 0 (dpi 0)). […] An observer who was blinded to the treatment groups evaluated the severity of arthritis by employing the following grading system: 0 (no redness or swelling of the foot), 1 (slight redness in the foot or redness and swelling in single interphalangeal joints), 2 (moderate swelling and redness in the ankle and metatarsal part of the foot), 3 (marked swelling and redness of the entire foot, with restricted use of the foot during locomotion) and 4 (marked swelling and redness of the entire foot, with no use of the foot during locomotion). […] The differences in the area under the clinical score curve during the period of observation between the control and peptide-treated groups were calculated, with baseline defined as the start of treatment (that is, 0)."}, "[4]": {"tested_on": "Aβ25–35-induced social memory deficit", "type": "in vivo", "details": "rat, Aβ25–35 15 μg i.c.v., Ilantide-t 10 mg/kg s.c., third trial", "method": "Aggregates of Aβ25-35 (Bachem AG, Weil am Rhein, Germany) were prepared by incubating the peptides at a concentration of 3 μg/μl in sterile water for 4 days at 37°C. Subsequently, 5 μl of aggregated Aβ25-35 were injected intracerebroventricularly (1.2 μl/min) with a 10-μl Hamilton syringe using the following coordinates: 0.8 mm posterior to the bregma, 1.5 mm lateral to the sagittal suture and 3.8 mm beneath the surface of the brain. The procedure was performed while the animals were under anesthesia (i.p. fentanyl-fluanisone/midazolam at 0.3 ml/100-g animal; that is, 23.6 μg of fentanyl, 0.75 mg of fluanisone and 375 μg midazolam per 100-g animal). Social memory in animals reflects the ability of individuals to recognize conspecifics as familiar or unfamiliar. […] During each trial, the investigative behavior of the adult toward the juvenile (that is, licking, sniffing and chewing the fur of the juvenile) was monitored with a video camera and scored by an observer who was blinded to the treatment of the animals. […] The time spent investigating a novel juvenile (T3) was measured to confirm that the effect seen with the familiar juvenile was specific to cognition. In this case, RRnew was calculated as T3/(T1 + T3)."}}, "note": "Positions of bridges follow the written chain, without caps; N, C: chain ends. Chains are numbered I, II in the order given. No end group written: not given here.", "data": [{"substance": "I: SGRKSSKMQAKK-NH2 / II: SGRKSSKMQAK / III: SGRKSSKMQA / IV: SGRKSSKMQA (amide I:11-IV:C, I:12-II:C, II:11-III:C; C-terminus assumed) [Ilantide-t]", "values": [{"measurement": "Neurite outgrowth from CGNs", "setting": "[1]", "value": "significantly induced neurite outgrowth"}, {"measurement": "Reduction of IL-1-induced apoptosis relative to the maximal effect of Ana", "setting": "[2]; Ilantide-t in high molar excess", "value": 1.5, "unit": "×"}, {"measurement": "Maximal inhibition of IL-1β-induced apoptosis", "setting": "[2]; rat islets, 30 minutes preincubation, 8.68 nM (150 pg/ml) IL-1β, 24 hours, four independent experiments", "value": 93, "unit": "%"}, {"measurement": "Severity of CIA (clinical score, area under the curve) versus vehicle", "setting": "[3]", "value": "significantly attenuated"}, {"measurement": "RRnew (recognition ratio with new juvenile)", "setting": "[4]", "value": "did not differ from 0.5"}]}, {"substance": "IL-1Ra: recombinant interleukin 1 receptor antagonist purchased from R&D Systems", "values": [{"measurement": "Neurite outgrowth from CGNs", "setting": "[1]", "value": "significantly induced neurite outgrowth"}]}]}
